The values that follow come from patent US20080207632A1, “PROTEIN KINASE INHIBITORS” (SUPERGEN, INC., priority 2006, published 2008).

The test system of data set [1] is MDA-MB-231 breast carcinoma cells. Description: cell proliferation assay (Cell-Titer-Glo), MDA-MB-231. It counts as cell-based. To be noted: Homo sapiens. The protocol: Cell culture-based assays can be used to evaluate the ability of compounds of the invention to inhibit one or more cellular activities, such as cancer cell growth and/or survival. Numerous cancer cell lines can be obtained from the American Type Culture Collection (ATCC) and other sources. Briefly, cells are seeded into 96-well, tissue-culture treated, opaque white plates (Thermo Electron, Vantaa, Finland), at between 5000 and 10000 cells per well, depending on the speed of cell proliferation, in 100 μl of appropriate growth medium (determined by the ATCC). Cells are then exposed to the appropriate concentration of drug or an equal amount of DMSO (drug diluent) and allowed to grow in its presence for 96 hours. Following this, 100 μl of Cell-Titer-Glo reagent (Promega, Inc., Madison, Wis.) is added to each well. Plates are then shaken for 2 minutes at room temperature to allow for cell lysis and incubated for 10 minutes to stabilize the luminescent signal. Similar to the Kinase-Glo assay reagent from Promega, this reagent contains both luciferase enzyme and its substrate luciferin. Luciferase, activated by ATP in the cell lysate, catalyzes the conversion of luciferin to oxyluciferin, a reaction which produces light. The amount of light produced is proportionate to the amount of ATP in the cell lysate, which is itself proportional to cell number and gives an index of cellular proliferation.
Compound 1-1 and Compound 2-11 were tested in a cell proliferation assay to determine potency in a cell-based assay format. Briefly, MDA-MB-231 breast carcinoma cells were inoculated onto 96-well plates and incubated in the presence of compounds for 96 hours. Following incubation, cells were lysed and ATP content used as a surrogate for cell number, using the Cell-Titer-Glo Luminescent Cell Viability Assay Kit (Promega Corp.). IC50 values, representing the concentration required to reduce cell number to 50% of untreated controls, were determined to be 20 uM for Compound 1-1 and 10 uM for Compound 2-11.

A further data set has as its system MiaPaCa-2 (pancreas). Description: in vitro cytotoxicity assay (Cell-Titer-Glo), MiaPaCa-2. To be noted: Homo sapiens, MIA PaCa-2; Table 10; 96 hours; read-out: IC50 MiaPaCa-2 (inhibit cell growth to 50% of untreated). It counts as cell-based.
The test system of data set [2] is A549 non-small cell lung carcinoma cells. Put plainly: cell cycle distribution by DNA content flow cytometry (Guava). It counts as cell-based. To be noted: synchronized A549 cells, 24 hours post-release. On the procedure:
It is expected that a specific Aurora-2 kinase inhibitor would cause only brief cell cycle arrest at G2/M, which should be immediately followed by apoptosis. This is in contrast to Aurora-1 kinase inhibitors, which tend to cause a prolonged cell cycle arrest. compound 2-3 was examined for its ability to cause cell cycle arrest and apoptosis. Briefly, A549 non-small cell lung carcinoma cells were plated at 50000 cells/mL in a 24-well plate. Cells were synchronized with 4 μg/mL Aphidicolin for 16 hours, followed by a 24 hour synchronization with 1 μg/mL Hoechst 33342, to arrest the cells at the G2/M boundary. Cells were then released into regular medium with or without SGI-498 and allowed to grow for an additional 24 hours. This synchronization was necessary for visualization of the brief G2/M arrest caused by compound 2-3. Following this incubation, cells were stained for DNA content analysis using the Guava Cell Cycle Assay Kit (Guava Technologies, Hayward Calif.), according to manufacturer instructions. Cells were then analyzed with the Guava EasyCyte benchtop flow cytometer using the Guava Cell Cycle analysis protocol. Cells were gated according to DNA content into G0/G1, S, G2/M or apoptotic (sub-G1) categories.
(In general: A flow cytometer gives signals particle by particle.)

Data set [3] deals with Granta-4 lymphoma cell line. Description: lymphoma cell number reduction, Granta-4. Type of data set: cell-based. To be noted: 48 hours; read-out: IC50 Values Granta-4, single agent. On the procedure:
New IC50 values were calculated for the second agent in an effort to determine whether or not pretreatment with one compound would increase sensitivity to the other. As set forth in the table below, compound 2-3 pretreatment led to an increased sensitivity to Taxol®, however Taxol® pretreatment appeared to be […] to compound 2-3 in this assay.

For data set [4], the system named is HT-29 Colorectal Xenograft. Description: HT-29 colorectal xenograft, route of administration (Example 70). It counts as in vivo, mice. To be noted: intraperitoneal ALZET osmotic pump, 25 mg/kg/day over 14 days. On the procedure:
This study examined the effect of route of administration on tumor growth inhibition. Tumor bearing mice were treated with compound 2-3 intraperitoneally (ALZET osmotic pumps, delivering 25 mg/kg/day over 14 days) or intravenously (80 mg/kg/d on Days 1, 4 and 7). Because of difficulty in maintaining tail vein patency, this group of mice received subsequent dose intraperitoneally on Days 10, 11, 12 and 15. Compound 2-3 delivered continuously via the osmotic pump decreased tumor growth rate to 10.75 mm^3/d, compared with vehicle-treated tumor growth rate of 28.28 mm^3/d (see FIG. 5). Treated/Control ratio was 38%. […] However, after dosing was switched to IP, this effect was lost.

Another data set relates to DU145 carcinoma. Description: DU145 prostate cancer xenograft. It counts as in vivo. The protocol:
In this study, DU145 carcinoma model was used to evaluate the anti-tumor efficacy of compound 2-3. The murine xenograft model was established by inoculating 2×10^6 cells into each Balb/c nude mouse via s.c. injection. When the average tumor size reached ˜100 mm^3, the mice were randomly divided into different experimental groups based on tumor size. Subcutaneous administration of compound 2-3 was conducted via an Alzet osmotic pump. On day 30 a second cycle of dosing was initiated.

Data set [5] deals with HT-29 human colon cancer cells. Put plainly: HT-29 xenograft study in mice (Example 57). Type of data set: in vivo. To be noted: 5 mg/kg IP, QDx5 for three weeks. The protocol:
In order to evaluate the effectiveness of compound 2-5 against tumor cells in a living system, a xenograft study was performed in mice. 1×10^7 HT-29 human colon cancer cells were injected subcutaneously into Nu/Nu athymic nude mice (Charles River Laboratories, Wilmington, Mass.). Tumor volume was measured according to the formula ((Width)^2*Length)/2. Tumors were allowed to grow to approximately 200 mm^3 in volume (Day 0), at which point mice were randomized to three groups. Eight mice were grouped to receive SGI-1097 as treatment, and two groups of eight would receive vehicle alone as a negative control. The SGI-1097 compound was formulated in the following vehicle: 10% EtOH; 30% PEG 300; 60% solution of 300 mg/ml 2-Hydroxypropyl-beta-cyclodextrin in water.
In the treatment group, each animal received 5 mg/kg of compound 2-5 in the aforementioned vehicle at a volume of 100 μl, dosed IP. The dosing schedule was QDx5 for three weeks. […]
Another negative control group was dosed PO with corn oil on the same dosing schedule. The tumor volumes for both the treated and untreated groups were measured twice a week for the three week dosing period, and for one week after the dosing period.

Each structure is given as a SMILES string. Read-outs that look alike come from different tables or passages of the source.

The IC50 is the concentration that inhibits the measured activity by half. In the case of `CC(=O)NS(=O)(=O)c1ccc(NC(=S)N2CCN(c3ncnc4[nH]c5cc(C(F)(F)F)c(Cl)cc5c34)CC2)cc1` [Compound 1-1, 4-(6-Chloro-7-trifluoromethyl-9H-pyrimido[4,5-b]indol-4-yl)-piperazine-1-carbothioic acid (4-acetylsulfamoyl-phenyl)-amide], the IC50 came to 20 µM in data set [1] (Example 65, 96 hours, read-out: IC50 (reduce cell number to 50% of untreated controls)); 20.2 µM in data set [1] (Table 10, 96 hours, read-out: IC50 MDA-MB-231 (inhibit cell growth to 50% of untreated)); 66.6 µM with MiaPaCa-2 (pancreas).

With `COc1cc2[nH]c3ncnc(N4CCN(C(=S)Nc5ccc(S(=O)(=O)Nc6ccc(F)cc6)cc5)CC4)c3c2cc1OC` [Compound 2-3, 4-(6,7-dimethoxy-9H-pyrimido[4,5-b]indol-4-yl)-N-(4-(N-(4-fluorophenyl)sulfamoyl)phenyl)piperazine-1-carbothioamide], in data set [2], the “cell cycle arrest and apoptosis” value was “Brief Cell Cycle Arrest in G2/M. Followed by Apoptosis”. Besides, the IC50 in data set [3] stood at 2.04 µM. In addition, in data set [4], the Treated/Control ratio was determined as 38% and the tumor growth rate is listed as 10.75 mm^3/d. In the data set on DU145 carcinoma (Alzet osmotic pump subcutaneous or intravenous, second cycle on day 30), the tumor growth entry is reported as “led to a reduction in tumor growth”. For the same molecule, the “tolerability of repeat dose (weight loss)” value with DU145 carcinoma (repeat dose in mice) is “well tolerated”. Also, in the data set on DU145 carcinoma (subcutaneous versus intravenous), the “efficacy by route of administration” value is “more effective when administered subcutaneously than intravenously”.

`COc1ccc2c(c1)[nH]c1ncnc(N3CCN(C(=S)Nc4ccc(S(=O)(=O)Nc5ccc(F)cc5)cc4)CC3)c12` [Compound 2-5, 4-(7-methoxy-9H-pyrimido[4,5-b]indol-4-yl)-N-(4-(N-(4-fluorophenyl)sulfamoyl)phenyl)piperazine-1-carbothioamide]: in data set [5], the “toxicity through the duration of the study” value is on record as “No noticeable toxicity” and the “tumor growth inhibition in vivo” value is recorded as “effective for inhibiting tumor growth in vivo”.
